Laboratory results: patent US7211424B1, “Mammalian Subtilisin/kexin isozyme SKI-1: a proprotein convertase with a unique cleavage specificity” (Institut de Recherches Cliniques de Montreal, priority 1999, dated 2007)
*1 amine or outer side, *2 acyl side, *3 side chain or, on linkers, in order; H or OH if unused. Where a SMILES comes first, the peptide text is derived from it. [ ]: non-standard residue; d: D form. The star is where a group is joined. Sta = CC(C)C[C@H](N)[C@@H](O)CC(=O)O; Isovaleryl = CC(C)CC(=O)*; CO = O=C([*:1])[*:2]

T1: BTMD-SKI-1 (Homo sapiens, UniProt Q14703)
T1 sequence (Q14703 187-997 limits assumed): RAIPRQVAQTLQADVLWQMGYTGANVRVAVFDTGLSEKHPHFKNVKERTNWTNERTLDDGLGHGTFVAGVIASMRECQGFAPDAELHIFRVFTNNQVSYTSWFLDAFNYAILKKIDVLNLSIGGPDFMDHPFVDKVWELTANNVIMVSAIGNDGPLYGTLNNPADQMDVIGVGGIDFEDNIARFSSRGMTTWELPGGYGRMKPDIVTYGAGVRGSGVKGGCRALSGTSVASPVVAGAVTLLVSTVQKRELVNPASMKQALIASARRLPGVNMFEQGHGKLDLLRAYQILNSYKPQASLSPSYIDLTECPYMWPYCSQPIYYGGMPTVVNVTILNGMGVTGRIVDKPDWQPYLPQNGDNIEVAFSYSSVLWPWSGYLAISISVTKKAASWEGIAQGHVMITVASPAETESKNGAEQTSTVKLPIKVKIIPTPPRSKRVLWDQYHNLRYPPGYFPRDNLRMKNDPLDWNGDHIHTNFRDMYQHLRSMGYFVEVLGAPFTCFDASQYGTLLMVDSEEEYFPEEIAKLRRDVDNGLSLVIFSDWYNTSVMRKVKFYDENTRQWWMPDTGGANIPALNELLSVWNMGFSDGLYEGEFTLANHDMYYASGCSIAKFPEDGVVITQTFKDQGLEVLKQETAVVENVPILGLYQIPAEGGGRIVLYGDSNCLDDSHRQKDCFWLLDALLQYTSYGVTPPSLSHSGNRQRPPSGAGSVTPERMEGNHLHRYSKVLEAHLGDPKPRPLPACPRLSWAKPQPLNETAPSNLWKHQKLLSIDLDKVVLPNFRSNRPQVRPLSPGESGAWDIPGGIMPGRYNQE
T1 sequence (Q14703 17-137 partner limits assumed): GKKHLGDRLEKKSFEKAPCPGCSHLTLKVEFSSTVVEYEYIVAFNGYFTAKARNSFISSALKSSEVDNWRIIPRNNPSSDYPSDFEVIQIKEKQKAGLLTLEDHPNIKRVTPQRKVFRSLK


Biological target: T1, BTMD-SKI-1
Assay: biochemical
Assay type: biochemical
[1] = read-out: Hydrolysis of SREBP-2 peptide (% of control)

Row | Molecule | Hydrolysis of SREBP-2 peptide (% of control) | other results
1 | cystatin | 100 % of control | 
2 | CC(C)C[C@H](NC(=O)[C@H]1O[C@@H]1C(=O)O)C(=O)NCCCCN=C(N)N [Peptide E-64] | 100 % of control | 
3 | O=S(=O)([O-])[O-].[Ni+2] [NiSO4] | 93 % of control | 
4 | Cc1ccc(S(=O)(=O)NC(CCCCN)C(=O)CCl)cc1 (centres unmarked) [TLCK] | 100 % of control | 
5 | CC(=O)N[C@@H](CC(C)C)C(=O)N[C@@H](CC(C)C)C(=O)N[C@H](C=O)CCCNC(=N)N [Leupeptin] |  | remaining activity at 1000 µM [1]: 100%
6 | CC(C)[C@H](NC(=O)[C@H](CCCNC(=N)N)NC(=O)N[C@@H](Cc1ccccc1)C(=O)O)C(=O)N[C@H](C=O)CCCNC(=N)N [Antipain, antipain] ({Phe-CO}-Arg-Val-Arg-aldehyde) |  | remaining activity at 1000 µM [1]: 100%
7 | Nc1ccc(CS(=O)(=O)F)cc1 [APMSF, para-aminophenylmethylsulfonyl fluoride] | 95 % of control | 
8 | O=S(=O)([O-])[O-].[Zn+2] [ZnSO4] | 0 % of control | 
9 | Cc1ccc(S(=O)(=O)N[C@@H](Cc2ccccc2)C(=O)CCl)cc1 [TPCK] | 71 % of control | 
10 | O=C(O)CN(CCOCCOCCN(CC(=O)O)CC(=O)O)CC(=O)O [EGTA] | 15 % of control | 
11 | O=S(=O)([O-])[O-].[Cu+2] [CuSO4] | 0 % of control | 
12 | O[C@H](CS)[C@H](O)CS (racemic) [Dithiothreitol] |  | remaining activity at 10000 µM [1]: 92%
13 | CC(C)CC(=O)N[C@H](C(=O)N[C@H](C(=O)N[C@@H](CC(C)C)[C@@H](O)CC(=O)N[C@@H](C)C(=O)N[C@@H](CC(C)C)[C@@H](O)CC(=O)O)C(C)C)C(C)C [Pepstatin, pepstatin] (Isovaleryl-VV[Sta]A[Sta]-OH) |  | remaining activity at 100 µM [1]: 97%
14 | [Cl-].[Cl-].[Co+2] [CoCl2] | 100 % of control | 
15 | [Cl-].[Cl-].[Mg+2] [MgCl2] | 100 % of control | 
16 | CC(C)C[C@H](NC(=O)[C@@H](NC(=O)N[C@@H](Cc1ccccc1)C(=O)O)[C@@H]1CCN=C(N)N1)C(=O)N[C@H](C=O)Cc1ccccc1 [Chymostatin] |  | remaining activity at 1000 µM [1]: 100%
17 | soya bean trypsin inhibitor (protein, UniProt P01070 25-205, looked up) Trypsin inhibitor A: DFVLDNEGNPLENGGTYYILSDITAFGGIRAAPTGNERCPLTVVQSRNELDKGIGTIISSPYRIRFIAEGHPLSLKFDSFAVIMLCVGIPTEWSVVEDLPEGPAVKIGENKDAMDGWFRLERVSDDEFNNYKLVFCPQQAEDDKCGDIGISIDHDDGTRRLVVSKNKPLVVQFQKLDKESL | 100 % of control | 
